Measured values from US12102607B2, “C5aR inhibitors for use in the treatment of chemotherapy-induced iatrogenic pain” (Dompe' Farmaceutici S.P.A., priority 2017, dated 2024).

Legend:
[1] = test system: acetylated α-Tubulin; test: In-cell western analysis of acetylated α-Tubulin in DRG neurons; assay type: cell-based, Sprague Dawley rat; details: for Acetylated α-Tubulin (% of UT): DRG neurons
Method: (§1) Dorsal Root Ganglion neurons were obtained by dissociation of post natal (P2) Sprague Dawley rat ganglia (Envigo, Bresso Italy), following well-defined protocols (O'Meara et al, 2011; Owen et al, 2012). To minimize introduction of contaminating cells into the culture, any excessively long roots were trimmed from DRGs. After the isolation, DRGs were enzymatically dissociated as follows: • 20 minutes of 1.5 mg/ml papain exposure at 37° C., • 30 minutes of 4 mg/ml collagenase exposure at 37° C.
(§2) Subsequently, cells were mechanically dissociated with a fire polished glass Pasteur pipette, in order to obtain a single cell suspension.
(§3) Once dissociation was achieved, cells were seeded onto 96 black multiwell plates coated with Laminin (10 ug/mL, overnight at Room Temperature, RT) at selected densities. Following 1 week of incubation in DMEM high glucose medium supplemented with 10% FBS, 1× N2, 1× B27, 100 IU/mI penicillin, […] streptomycin, cells were treated according to experimental needs.
Dorsal Root Ganglion neurons isolated as previously reported were subjected to the following experimental challenge scheme as depicted in FIG. 10.
Paclitaxel, C5a and drugs were administered 24 hr prior the in-cell western experiment. Following 24 hr of treatment with appropriate stimuli as previously indicated, cells were washed with 1×PBS and fixed with 3,7% formaldehyde for 15 min. After the removal of fixing solution, cells were washed with 1×PBS and permeabilized with 1×PBS-0,1% Triton X-100 for 5 min at RT. Cells were then stained over night at 4° C. with the anti-acetylated α-Tubulin antibody, diluted 1:500 in Odyssey Blocking buffer, following manufacturer's protocol.
The next day, cells were washed with 1×PBS-0.1% Tween20, and stained with the secondary antibody (diluted 1:800 in Odyssey Blocking buffer, as recommended by the protocol) and with the CellTag 700Stain […]. To lower the background, Tween20 at a final concentration of 0.2% was added to the Odyssey Blocking buffer. 96-well plates were then read at Odyssey CLx Imaging system and images acquired. Data analysis was carried out by the use of Image Studio 2.1 software.
Paclitaxel was given to the DRG neurons following 7 days of culture at the concentration of 200 nM (Scuteri et al. 2006).
Effect of DF3966Y in C5α-induced neuronal toxicity In order to determine whether the observed effects may be triggered also by C5a, recombinant mouse C5a 1 μg/ml (111.11 nM) was given to the DRG neurons after 7 days of culture in presence or absence of DF3966Y 1 μM.
After 24 hr of incubation, acetylated α-Tubulin was quantified using in-cell western technique, as previously described.

[2] = test system: DRG neurons; test: Cells number of DRG neurons (immunofluorescence, image analysis); assay type: cell-based; details: for % of cell number: relative to UT
Method: as §1, §2, §3
(§4) Alpha Tubulin Acetylation DRG-derived neurons were cultured for 7 days and then treated with:
(§5) • paclitaxel (200 nM, 500 nM, 1 μM and 5 μM, 20 μM) in presence or absence of DF3966Y (0.1, 1 and 10 μM) or DF2593A (0.1, 1 and 10 μM) • or C5a (500 ng/ml and 1 μg/ml) in presence or absence of DF3966Y (1 μM)
(§6) After 24 hr of treatment, cells were stained by immunofluorescence.
(§7) Cells were fixed with saccharose-paraformaldehyde then staining was performed overnight. Primary antibodies (anti—Ill Tubulin and anti-synaptotagmin 1) were diluted 1:500 in 1×PBS-4% BSA-2% Normal goat serum and 0.3% Triton x-100. The next day, cells were washed with 1×PBS-4% BSA and secondary antibodies were used diluted 1:500 in 1×PBS-4% BSA-2% Normal goat serum and 0.3% Triton x-100. After 1 hr of incubation, cells were washed with 1×PBS. Hoechst was used as a counterstain.
(§8) Sixteen images per well were taken with ArrayScan XTI HCA Reader (Thermo Fisher Scientific) with and 40× objective. All the analysis were done with HCS Studio software
(§9) Cells number, synapse number and dentritic arborization were evaluated in untreated cells and in cells stimulated with paclitaxel and C5a alone or in presence of the drug. As marker of chemotherapy-induced toxicity, the total number of synapses on DRG neurons was quantitative evaluated as percentage of the number of synapse with respect to untreated (UT) control.
(§10) Data are obtained as the sum of the values obtained by the analysis of sixteen fields per well for each experiment. Percentage of the values in respect to the relative mean untreated group was calculated. Mean of the percentages from 4 separate experiments was plotted in the following Tables 2-7.

[3] = test system: DRG neurons; test: Synapse number on DRG neurons (synaptotagmin staining, image analysis); assay type: cell-based, Sprague Dawley rat; details: for % of synapse number: relative to UT
Method: as §1, §2, §3, §4, §5, §6, §7, §8
For synapse count a threshold has been set, in particular all the objects, positive to synaptotagmin staining, in the range 0.365-2.457 μm^2 have been considered as synapses.
as §9, §10

[4] = test system: DRG neurons; test: Dendritic tree area of DRG neurons (image analysis); assay type: cell-based, Sprague Dawley rat; details: for % dendritic tree area: relative to UT
Method: as §1, §2, §3, §4, §5, §6, §7, §8
Dendritic arborization directly influences synaptic genesis and input. A well-developed arborization indicates a functional synaptic network. For this reason, the area occupied by dendritic arborization has been quantified.
as §10

[5] = test system: DRG neurons; test: Electrophysiological recordings (whole-cell patch-clamp, current-clamp) of DRG-derived neurons; assay type: cell-based, Sprague Dawley rat
Method: as §1
Dorsal Root Gangliar (DRG)-derived neurons were cultured for 7 days and then treated in blind with the following combinations: 10 nM Paclitaxel, 10 nM Paclitaxel+1 μM DF3966Y, 1 μg/ml C5a, 1 μg/ml C5a+1 μM DF3966Y.
The compounds were administered for 1 min 30 sec (short acute stimulation) or 5 minutes (long chronic stimulation). The application of the compounds was followed by a wash-out in the physiological control solution for an equivalent time (about 10 min).
Electrophysiological recordings were performed by the patch-clamp technique in the whole-cell configuration. The standard extracellr solution was bath applied and contained the following (mM): NaCl 135, KCl 2, CaCl2 2, MgCl2 2, hepes 10, glucose 5, pH 7.4. The standard pipet solution contained the following (mM): potassium aspartate 130, NaCl 10, MgCl2 2, CaCl2 1.3, EGTA 10, Hepes 10, pH 7.3. Recordings were acquired by the pClamp8.2 software and the MultiClamp 700A amplifier (Axon Instruments), in current-clamp mode.

C[C@H](c1ccc(Nc2nc(C(F)(F)F)cs2)cc1)c1nnn[nH]1 [DF3966Y, 1-N-[4-[(1R)-1-(1H-tetrazol-5-yl)ethyl]phenyl}-4-(trifluoromethyl)-11,3-thiazol-2-amine]
levels of acetylated α-Tubulin under C5a plus drug ([1]; DF3966Y 1 μM + C5a 1 μg/ml, 24 hr): significantly reduced the challenge induced by C5a exposure | Acetylated α-Tubulin (% of UT) ([1]; drug 0.1 μM under Paclitaxel 200 nM, 24 hr): 76.45 % of UT | Acetylated α-Tubulin (% of UT) ([1]; drug 1 μM under Paclitaxel 200 nM, 24 hr): 65.16 % of UT | Acetylated α-Tubulin (% of UT) ([1]; drug 10 μM under Paclitaxel 200 nM, 24 hr): 89.05 % of UT | reversal of Paclitaxel-induced increase in acetylated α-Tubulin ([1]; drug 0.1, 1, 10 μM, Paclitaxel 200 nM): significantly reverted the Paclitaxel-induced challenge | % of cell number ([2]; DF3966Y 1 μM + C5a (Table 3)): 96.65 ± 10.77% | % of cell number ([2]; DF3966Y 1 μM + PAC (Table 2)): 98.83 ± 12.49% | % of cell number ([2]; DF3966Y 1 μM alone (Table 2)): 101.55 ± 10.59% | % of cell number ([2]; DF3966Y 1 μM alone (Table 3)): 96.96 ± 6.45% | effect on cell number ([2]; DF3966Y administered alone or with PAC): did not exert any significant effect on cell number | % of synapse number ([3]; DF3966Y 1 μM + C5a (Table 5)): 111.33 ± 9.27% | % of synapse number ([3]; DF3966Y 1 μM + PAC (Table 4)): 92.04 ± 21.01% | effect on Paclitaxel-induced decrease in synapse number ([3]; DF3966Y 1 μM + paclitaxel): significantly counteracted Paclitaxel-induced effect | % of synapse number ([3]; DF3966Y 1 μM alone (Table 4)): 99.89 ± 12.94% | % of synapse number ([3]; DF3966Y 1 μM alone (Table 5)): 99.89 ± 12.94% | % dendritic tree area ([4]; DF3966Y 1 μM + C5a (Table 7)): 106.45 ± 9.43% | % dendritic tree area ([4]; DF3966Y 1 μM + PAC (Table 6)): 101.21 ± 7.97% | effect on paclitaxel-induced decrease of dendritic arborization area ([4]; DF3966Y 1 μM + paclitaxel): seems to counteract such a decrease | % dendritic tree area ([4]; DF3966Y 1 μM alone (Table 6)): 103.07 ± 8.17% | % dendritic tree area ([4]; DF3966Y 1 μM alone (Table 7)): 103.07 ± 8.17% | alteration of electrical activity under Paclitaxel plus drug ([5]; 10 nM Paclitaxel + 1 μM DF3966Y, first immediate phase and longer time of exposure): no significant alteration of electrical activity | inhibition of electrical activity under C5a plus drug, longer time of exposure ([5]; 1 μg/ml C5a + 1 μM DF3966Y, longer time of exposure (3-5 minutes)): about 35% | alteration of electrical activity under C5a plus drug, short time points ([5]; 1 μg/ml C5a + 1 μM DF3966Y, short time points): no significant alteration of the electrical activity

CC(=O)O[C@H]1C(=O)[C@@]2(C)[C@H]([C@H](OC(=O)c3ccccc3)[C@]3(O)C[C@H](OC(=O)[C@H](O)[C@@H](NC(=O)c4ccccc4)c4ccccc4)C(C)=C1C3(C)C)[C@]1(OC(C)=O)CO[C@@H]1C[C@@H]2O [Paclitaxel, reference compound]
change in acetylated α-Tubulin with respect to control (UT) cells ([1]; Paclitaxel 200 nM alone): marginal yet significant increase | Acetylated α-Tubulin (% of UT) ([1]; Paclitaxel 200 nM alone, 24 hr): 111.41 % of UT | effect on cell number ([2]; Paclitaxel alone): slight decrease in cell number | % of cell number ([2]; Paclitaxel alone (Table 2)): 88.87 ± 6.04% | % of synapse number ([3]; PAC alone (Table 4)): 88.02 ± 2.99% | effect on synapse number ([3]; Paclitaxel alone): marked decrease in synapse number | % dendritic tree area ([4]; PAC alone (Table 6)): 92.22 ± 3.47% | area occupied by dendritic arborization ([4]; Paclitaxel alone): non-significant decrease | action potential firing rate vs CTRL, immediate ([5]; 10 nM Paclitaxel alone, immediate phase): +54.64% | electrical activity vs CTRL, longer times of exposure ([5]; 10 nM Paclitaxel alone, longer times of exposure): −83.51%
